Results as given in patent US9492428B2, “Compounds, compositions, pharmaceutical compositions, and methods of use” (University of Louisville Research Foundation, Inc., priority 2011, dated 2016).

Legend:
Type in all cases: cell-based, human
PC3 cells = assay: Flow cytometric analysis of cell cycle (propidium iodide) in PC3; conditions: 10 μM
Protocol: FIG. 11. Compound I-1 induces cell cycle arrest and apoptosis in PC3 cells. Prostate cancer cells were left untreated (−) or treated with compound I-1 (10 μM) or with vehicle (DMSO) for the time indicated in the figure. (A) For flow cytometric analysis of cell cycle parameters, cells were fixed, and stained with propidium iodide. Each histogram indicates the percent of cells in G1, S, and G2/M phases of the cell cycle. Data were gated to exclude apoptotic cells for these calculations. (B) After treatment, cells were lysed and total lysates were analyzed for cellular apoptotic markers by immunoblotting using anti-PARP-1 or anti-cleaved Caspase-3 antibodies. Anti-GAPDH-1 antibody was used as loading control. (C) Some 48 h-treated PC3 cells were harvest by trypsinization, washed with PBS, and total DNA was extracted then analyzed on a 1.8% agarose gel. M indicates DNA size marker (base pairs).
Flow cytometric assays of cell cycle and cell death. Cells in fresh complete medium were plated (2×10^5 per well) into six-well plates for 18 h. After complete adhesion, cells were treated as indicated in the figures and harvested by trypsinization. […] Cells were then analyzed by flow cytometry using a FACScalibur cytometer (BD Biosciences, Mountain View, Calif.) and FlowJo program (Tree Star, Inc., Ashland, Oreg.).

[1] = test system: PC3 prostate cancer cells; assay: MTT cell proliferation assay in PC3; conditions: after three days of treatment
Protocol: (§1) FIG. 8. Cell proliferation assay. (A) DU145 or PC3 prostate cancer were plated at a density of 1,500 cells per well in 96-well plates and incubated 18 hours at 37° C. to allow adherence. They were untreated or treated by addition of different concentrations of compound I-1 (which were added directly to the medium) or vehicle (DMSO), and proliferation was measured using a 3-(4,5-dimethylthiazol-2-yl)-2,5-diphenyltetrazolium bromide MTT assay after 3 days of treatment. Points, mean of triplicate normalized samples to vehicle sample; bars, SE. (B) GI50 after 3 days of treatment. (C) Prostate cancer cells (DU145 or PC3) or a non-malignant epithelial cells (RWPE-1) were plated at a density of 1,000 cells per well in 96-well plates and incubated 18 hours at 37° C. to allow adherence. They were untreated or treated by addition of different concentrations of compound I-1 (added directly to the medium) or vehicle (DMSO), and proliferation was by MTT assay after 5 days of treatment. Points, mean of triplicate normalized samples to vehicle sample; bars, SE.
(§2) General Experimental Procedure. Compound I-1 was isolated as described in Example Set 1, above. For samples of compound I-1 used in Example Set 2, HPLC and NMR indicated a purity of at least 95%. All experiments described in Example Set 2 were repeated at least two or three times. […]

DU145 cells [2] = assay: Immunofluorescence (confocal) microscopy, α-tubulin and DAPI; conditions: 10 μM
Protocol: FIG. 14. Fluorescent microscopy of DU145 prostate cancer cells. DU145 cells were plated in culture dishes designed for confocal microscopy and allowed to adhere for 18 hours at 37° C. They were then for incubated for a further 24 and 48 h with 10 μM compound I-1 or 48 h with vehicle (DMSO). After that, cells were washed with cold PBS, fixed with 4% paraformaldehyde, and permeabilized with 0.1% Triton 100X. Cells were stained with 4′6-diamidino-2-phenylindole (DAPI), which binds to DNA, and with anti-α-tubulin antibody labeled with Alexa Fluor 488 to show the location of microtubules. Scale bars indicate a length of […], arrows indicate cells with evidence of aberrant mitosis, and asterisks indicate cells with apoptotic morphology.
Immunofluorescence microscopy. Cells (2.5×10^4) in fresh complete culture medium were plated on 18 mm diameter glass cover slips for 18 h. The medium was replaced with complete medium containing 10 μM compound I-1 or an equivalent volume of vehicle (DMSO) and incubated for 24 or 48 h. After incubation, cells were washed 3 times with ice-cold PBS, fixed in 4% paraformaldehyde in PBS for 30 min at room temperature, and washed three times with PBS. Cells were permeabilized for 1 min in PBS containing 0.1% Triton X-100, and washed three times with PBS. […]

[3] = test system: Prostate cancer cells (DU145 or PC3) or a non-malignant epithelial cells (RWPE-1); assay: MTT cell proliferation assay, 5 days, cancer versus non-malignant cells; conditions: after five days of treatment, FIG. 8C
Protocol: as §1, §2

DU145 cells [4] = assay: Clonogenic assay in DU145
Protocol: FIG. 7. Clonogenic assays in prostate cancer cells treated with compound I-1. Prostate cancer cells, DU145 (A) or PC3 (B), were plated at very low density in 6-well plates and incubated 18 h at 37° C. Cells were treated by addition of various concentrations of compound I-1 or with an equivalent volume of vehicle (DMSO), or were left untreated. After 10 days of treatment, cells were washed with cold PBS, fixed with paraformaldehyde, and stained with crystal violet solution.
Clonogenic Assay. Cells in fresh complete medium were plated at very low density (3×10^2 per well) into six-well plates for 18 h. After complete adhesion, cells were treated with compound I-1 by adding directly to the medium to give the concentration indicated in the figures. Cells were allowed to grow until visible colonies formed (10 days). Cell colonies were fixed with 4% paraformaldehyde in PBS (phosphate-buffered saline), stained with 0.25% crystal violet in 25% methanol, washed and air-dried.

C[C@@H]1CC[C@H]2C3C(O[C@]4([C@]5(O)CC6(C)C(=O)OC5C[C@@]6(C)O)CC[C@@]31O4)[C@H]1O[C@]13CC=CC(=O)[C@]23C (stereo partly shown) [I-1]
G2/M arrest (PC3 cells): able to cause G2/M arrest
concentration of maximum antiproliferative activity [1]: 10 µM
cells with evidence of aberrant mitosis (DU145 cells [2]; 24 h): increased number
cells with evidence of abnormal mitosis or apoptosis (DU145 cells [2]; 48 h): almost all of the cells
inhibition of cancer cell growth as compared to non-malignant cell growth [3]: selectivity inhibit cancer cell growth
effect on colony formation (DU145 cells [4]; 2.5 μM, 10 days): Inhibitory effects
concentration that blocked the capacity of single cancer cells to generate colonies (DU145 cells [4]; 10 days of treatment): ≥ 5 µM
